Source: US11542255B2, “Sulfonylureas and sulfonylthioureas as NLRP3 inhibitors” (Inflazome Limited, priority 2017, dated 2023)
pIC50: −log10 of the molar value. Structures can show the parent of a compound that is named as a salt.

Target: T1, NLRP3 (Homo sapiens, UniProt Q96P20)
Test: THP-1 cells pyroptosis assay (LPS + nigericin, resazurin readout)
Assay type: cell-based
Set-up: Seed THP-1 cells (25,000 cells/well) containing 1.0 μg/ml LPS in 40 μl of RPMI medium; host or cells: THP-1 cells
Conditions: NLRP3 inhibitory activity, 1.0 μg/ml LPS, 5 μM nigericin
Experimental: THP-1 cells (ATCC #TIB-202) were grown in RPMI containing L-glutamine (Gibco #11835) supplemented with 1 mM sodium pyruvate (Sigma #S8636) and penicillin (100 units/ml)/streptomycin (0.1 mg/ml) (Sigma #P4333) in 10% Fetal Bovine Serum (FBS) (Sigma #F0804). The cells were routinely passaged and grown to confluency (˜10^6 cells/ml). On the day of the experiment, THP-1 cells were harvested and resuspended into RPMI medium (without FBS). The cells were then counted and viability (>90%) checked by Trypan blue (Sigma #T8154). Appropriate dilutions were made to give a concentration of 625,000 cells/ml. To this diluted cell solution was added LPS (Sigma #L4524) to give a […] Final Assay Concentration (FAC). 40 μl of the final preparation was aliquoted into each well of a 96-well plate. The plate thus prepared was used for compound screening.
The following method step-by-step assay was followed for compound screening. • 1. Seed THP-1 cells (25,000 cells/well) containing 1.0 μg/ml LPS in 40 μl of RPMI medium (without FBS) in 96-well, black walled, clear bottom cell culture plates coated with poly-D-lysine (VWR #734-0317) • 2. Add 5 μl compound (8 points half-log dilution, with 10 μM top dose) or vehicle (DMSO 0.1% FAC) to the appropriate wells • 3. Incubate for 3 hrs at 37° C. in 5% CO2 • 4. Add 5 μl nigericin (Sigma #N7143) (FAC 5 μM) to all wells • 5. Incubate for 1 hr at 37° C. and 5% CO2 • 6. At the end of the incubation period, spin plates at 300×g for 3 mins and remove supernatant • 7. Then add 50 μl of resazurin (Sigma #R7017) (FAC 100 μM resazurin in RPMI medium without FBS) and incubate plates for a further 1-2 hrs at 37° C. and 5% CO2 • 8. Plates were read in an Envision reader at Ex 560 nm and Em 590 nm • 9. IC50 data is fitted to a non-linear regression equation (log inhibitor vs response-variable slope 4-parameters)

T1 sequence (Q96P20 whole entry): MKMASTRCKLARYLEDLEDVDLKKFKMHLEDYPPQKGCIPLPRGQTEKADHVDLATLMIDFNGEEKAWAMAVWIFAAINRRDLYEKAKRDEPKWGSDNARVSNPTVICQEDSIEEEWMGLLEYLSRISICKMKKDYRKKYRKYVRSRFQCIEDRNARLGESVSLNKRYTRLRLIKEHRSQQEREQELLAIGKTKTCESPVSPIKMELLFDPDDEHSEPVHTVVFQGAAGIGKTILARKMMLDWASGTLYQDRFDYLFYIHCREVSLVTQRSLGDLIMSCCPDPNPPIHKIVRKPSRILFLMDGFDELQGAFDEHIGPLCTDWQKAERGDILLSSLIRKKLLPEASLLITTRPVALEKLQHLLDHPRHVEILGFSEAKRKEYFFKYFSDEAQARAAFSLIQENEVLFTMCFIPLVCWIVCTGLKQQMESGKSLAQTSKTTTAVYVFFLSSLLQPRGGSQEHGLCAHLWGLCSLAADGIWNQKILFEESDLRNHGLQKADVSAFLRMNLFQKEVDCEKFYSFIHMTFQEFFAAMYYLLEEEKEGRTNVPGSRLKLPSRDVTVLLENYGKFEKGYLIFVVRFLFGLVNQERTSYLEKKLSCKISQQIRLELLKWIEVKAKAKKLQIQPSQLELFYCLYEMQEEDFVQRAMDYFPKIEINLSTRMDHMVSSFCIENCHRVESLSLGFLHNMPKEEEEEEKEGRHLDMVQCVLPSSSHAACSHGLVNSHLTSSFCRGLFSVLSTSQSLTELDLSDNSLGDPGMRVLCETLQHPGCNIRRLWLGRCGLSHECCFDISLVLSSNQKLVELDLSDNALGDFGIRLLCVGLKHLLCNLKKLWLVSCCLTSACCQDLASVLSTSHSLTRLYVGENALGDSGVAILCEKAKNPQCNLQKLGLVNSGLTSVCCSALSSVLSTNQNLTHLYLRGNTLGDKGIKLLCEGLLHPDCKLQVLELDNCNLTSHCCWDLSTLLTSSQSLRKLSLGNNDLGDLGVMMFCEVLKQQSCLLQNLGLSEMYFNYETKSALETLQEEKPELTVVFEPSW

SMILES	pIC50
CN(Cc1cc(S(=O)(=O)NC(=O)Nc2c3c(cc4c2CCC4)CCC3)nn1C)C1CC1 [Example 85, 5-((Cyclopropyl(methyl)amino)methyl)-N-((1,2,3,5,6,7-hexahydro-s-indacen-4-yl)carbamoyl)-1-methyl-1H-pyrazole-3-sulfonamide, Sodium Salt]	6.19 to 6.80
COCCN(C)Cc1cc(S(=O)(=O)NC(=O)Nc2c(C(C)C)cc(F)cc2C(C)C)nn1C [Example 118, N-((4-Fluoro-2,6-diisopropylphenyl)carbamoyl)-5-(((2-methoxyethyl)(methyl)amino)methyl)-1-methyl-1H-pyrazole-3-sulfonamide, Sodium Salt]	5.59 to 6.19
CN1CC(O)(c2cc(S(=O)(=O)NC(=O)Nc3c4c(cc5c3CCC5)CCC4)nn2C)C1 [Example 75, N-((1,2,3,5,6,7-Hexahydro-s-indacen-4-yl)carbamoyl)-5-(3-hydroxy-1-methylazetidin-3-yl)-1-methyl-1H-pyrazole-3-sulfonamide]	6.19 to 6.80
COc1cc(-c2ccc3c(c2NC(=O)NS(=O)(=O)c2cc(C4CCCN4C)n(C(C)C)n2)CCC3)ccn1 (stereo not drawn) [Example 179]	6.80 to 7.40
CCC(c1cc(S(=O)(=O)NC(=O)Nc2c3c(cc4c2CCC4)CCC3)nn1C1CC1)N1CCC1 (stereo not drawn) [Example 23, 5-(1-(Azetidin-1-yl)propyl)-1-cyclopropyl-N-((1,2,3,5,6,7-hexahydro-s-indacen-4-yl)carbamoyl)-1H-pyrazole-3-sulfonamide]	> 7.40
CN(CCO)Cc1cc(S(=O)(=O)NC(=O)Nc2c3c(cc4c2CCC4)CCC3)nn1C [Example 117, N-((1,2,3,5,6,7-Hexahydro-s-indacen-4-yl)carbamoyl)-5-(((2-hydroxyethyl)(methyl)amino)methyl)-1-methyl-1H-pyrazole-3-sulfonamide]	6.80 to 7.40
CN(C)Cc1nc(S(=O)(=O)NC(=O)Nc2c3c(cc4c2CCC4)CCC3)cn1C [Example 167, 2-((Dimethylamino)methyl)-N-((1,2,3,5,6,7-hexahydro-s-indacen-4-yl)carbamoyl)-1-methyl-1H-imidazole-4-sulfonamide]	5.00 to 5.59
CN(Cc1cc(S(=O)(=O)NC(=O)Nc2c3c(cc4c2CCC4)CCC3)nn1C)CC(F)(F)F [Example 97, N-((1,2,3,5,6,7-Hexahydro-s-indacen-4-yl)carbamoyl)-1-methyl-5-((methyl(2,2,2-trifluoroethyl)amino)methyl)-1H-pyrazole-3-sulfonamide, Sodium Salt]	6.19 to 6.80
CC(c1cc(S(=O)(=O)[N-]C(=O)Nc2c3c(cc4c2CCC4)CCC3)nn1C)[N+](C)(C)C (stereo not drawn) [Example 19, ((1,2,3,5,6,7-Hexahydro-s-indacen-4-yl)carbamoyl)((1-methyl-5-(1-(trimethylammonio)ethyl)-1H-pyrazol-3-yl)sulfonyl)amide]	5.59 to 6.19
CNCCn1nc(S(=O)(=O)NC(=O)Nc2c3c(cc4c2CCC4)CCC3)cc1C(=O)O [Example 2, 3-(N-((1,2,3,5,6,7-Hexahydro-s-indacen-4-yl)carbamoyl)sulfamoyl)-1-(2-(methylamino)ethyl)-1H-pyrazole-5-carboxylic Acid]	5.00 to 5.59
CC(C)c1cc(Cl)cc(C(C)C)c1NC(=O)NS(=O)(=O)c1cc(CN2CCOCC2)n(C)n1 [Example 120, N-((4-Chloro-2,6-diisopropylphenyl)carbamoyl)-1-methyl-5-(morpholinomethyl)-1H-pyrazole-3-sulfonamide, Sodium Salt]	5.59 to 6.19
CC(C)c1cc(F)cc(-c2cncnc2)c1NC(=O)NS(=O)(=O)c1cc(CN(C)C)n(C)n1 [Example 43, 5-((Dimethylamino)methyl)-N-((4-fluoro-2-isopropyl-6-(pyrimidin-5-yl)phenyl)carbamoyl)-1-methyl-1H-pyrazole-3-sulfonamide]	5.59 to 6.19
CC(C)c1cc(F)cc(C(C)C)c1NC(=O)NS(=O)(=O)c1cc(CN(C)C2CN(C)C2)n(C)n1 [Example 9, N-((4-Fluoro-2,6-diisopropylphenyl)carbamoyl)-1-methyl-5-((methyl(1-methylazetidin-3-yl)amino)methyl)-1H-pyrazole-3-sulfonamide, Sodium Salt]	5.00 to 5.59
CCn1nc(S(=O)(=O)NC(=O)Nc2c(Br)ccc3c2CCC3)cc1CN(C)C [Example 16, N-((5-Bromo-2,3-dihydro-1H-inden-4-yl)carbamoyl)-5-((dimethylamino)methyl)-1-ethyl-1H-pyrazole-3-sulfonamide]	5.59 to 6.19
CC(C)c1cc(F)cc(-c2cncnc2)c1NC(=O)NS(=O)(=O)c1cc(CN(C)C)n(C(C)C)n1 [Example 42, 5-((Dimethylamino)methyl)-N-((4-fluoro-2-isopropyl-6-(pyrimidin-5-yl)phenyl)carbamoyl)-1-isopropyl-1H-pyrazole-3-sulfonamide]	5.59 to 6.19
CC(C)n1nc(S(=O)(=O)[N-]C(=O)Nc2c3c(cc4c2CCC4)CCC3)cc1C(C)[N+](C)(C)C (stereo not drawn) [Example 18, ((1,2,3,5,6,7-Hexahydro-s-indacen-4-yl)carbamoyl)((1-isopropyl-5-(1-(trimethylammonio)ethyl)-1H-pyrazol-3-yl)sulfonyl)amide]	5.59 to 6.19
CN1CC(N(C)Cc2cc(S(=O)(=O)NC(=O)Nc3c4c(cc5c3CCC5)CCC4)nn2C)C1 [Example 8, N-((1,2,3,5,6,7-Hexahydro-s-indacen-4-yl)carbamoyl)-1-methyl-5-((methyl(1-methylazetidin-3-yl)amino)methyl)-1H-pyrazole-3-sulfonamide, Sodium Salt]	6.19 to 6.80
CC(C)c1cc(F)cc(C(C)C)c1NC(=O)NS(=O)(=O)c1cc(CN(C)C)n(C(C)C)n1 [Example 61, 5-((Dimethylamino)methyl)-N-((4-fluoro-2,6-diisopropylphenyl)carbamoyl)-1-isopropyl-1H-pyrazole-3-sulfonamide]	6.19 to 6.80
CC(C)c1cc(Cl)cc(C(C)C)c1NC(=O)NS(=O)(=O)c1cc(C(=O)N(C)CC#N)n(C)n1 [Example 130, 3-(N-((4-Chloro-2,6-diisopropylphenyl)carbamoyl)sulfamoyl)-N-(cyanomethyl)-N,1-dimethyl-1H-pyrazole-5-carboxamide]	5.59 to 6.19
CCn1nc(S(=O)(=O)NC(=O)Nc2c(-c3cccc(OC)c3)ccc3c2CCC3)cc1CN(C)C [Example 182]	5.59 to 6.19
Cn1nc(S(=O)(=O)NC(=O)Nc2c3c(cc4c2CCC4)CCC3)cc1CN1CCOCC1 [Example 121, N-((1,2,3,5,6,7-Hexahydro-s-indacen-4-yl)carbamoyl)-1-methyl-5-(morpholinomethyl)-1H-pyrazole-3-sulfonamide]	5.59 to 6.19
CC(C)c1cc(F)cc(-c2ccnc(C(N)=O)c2)c1NC(=O)NS(=O)(=O)c1cc(CN(C)C)n(C)n1 [Example 28, 4-(2-(3-((5-((Dimethylamino)methyl)-1-methyl-1H-pyrazol-3-yl)sulfonyl)ureido)-5-fluoro-3-isopropylphenyl)picolinamide]	5.59 to 6.19
CC(C)c1cc(F)cc(C(C)C)c1NC(=O)NS(=O)(=O)c1cc(CN(C)C2CC2)n(C)n1 [Example 87, 5-((Cyclopropyl(methyl)amino)methyl)-N-((4-fluoro-2,6-diisopropylphenyl)carbamoyl)-1-methyl-1H-pyrazole-3-sulfonamide, sodium Salt]	5.59 to 6.19

Target: T1, NLRP3
Test: Human whole blood IL1β release assay (LPS + nigericin, AlphaLisa IL-1β)
Assay type: cell-based
Set-up: Human whole blood in Li-heparin tubes was obtained from healthy donors from a volunteer donor panel; from tissue; host or cells: human whole blood from healthy donors
Conditions: NLRP3 inhibitory activity, 1 μg/ml LPS, 10 μM nigericin, IL-1β release, read-out: HWB IC50
Experimental: For systemic delivery, the ability to inhibit NLRP3 when the compounds are present within the bloodstream is of great importance. For this reason, the NLRP3 inhibitory activity of a number of compounds in human whole blood was investigated in accordance with the following protocol.
Human whole blood in Li-heparin tubes was obtained from healthy donors from a volunteer donor panel. • 1. Plate out 80 μl of whole blood containing 1 μg/ml of LPS in 96-well, clear bottom cell culture plate (Corning #3585) • 2. Add 10 μl compound (8 points half-log dilution with 10 μM top dose) or vehicle (DMSO 0.1% FAC) to the appropriate wells • 3. Incubate for 3 hrs at 37° C., 5% CO2 • 4. Add 10 μl Nigericin (Sigma #N7143) (10 μM FAC) to all wells • 5. Incubate for 1 hr at 37° C., 5% CO2 • 6. At the end of the incubation period, spin plates at 300×g for 5 mins to pellet cells and remove 20 μl of supernatant and add to 96-well v-bottom plates for IL-1β analysis (note: these plates containing the supernatants can be stored at −80° C. to be analysed at a later date) • 7. IL-1β was measured according to the manufacturer protocol (Perkin Elmer-AlphaLisa IL-1β Kit AL220F-5000) • 8. IC50 data is fitted to a non-linear regression equation (log inhibitor vs response-variable slope 4-parameters)

SMILES	pIC50
CN1CC(O)(c2cc(S(=O)(=O)NC(=O)Nc3c4c(cc5c3CCC5)CCC4)nn2C)C1 [Example 75, N-((1,2,3,5,6,7-Hexahydro-s-indacen-4-yl)carbamoyl)-5-(3-hydroxy-1-methylazetidin-3-yl)-1-methyl-1H-pyrazole-3-sulfonamide]	5.80 to 6.10
COc1cc(-c2ccc3c(c2NC(=O)NS(=O)(=O)c2cc(C4CCCN4C)n(C(C)C)n2)CCC3)ccn1 (stereo not drawn) [Example 179]	5.80 to 6.10
CCC(c1cc(S(=O)(=O)NC(=O)Nc2c3c(cc4c2CCC4)CCC3)nn1C1CC1)N1CCC1 (stereo not drawn) [Example 23, 5-(1-(Azetidin-1-yl)propyl)-1-cyclopropyl-N-((1,2,3,5,6,7-hexahydro-s-indacen-4-yl)carbamoyl)-1H-pyrazole-3-sulfonamide]	> 6.40
CN(CCO)Cc1cc(S(=O)(=O)NC(=O)Nc2c3c(cc4c2CCC4)CCC3)nn1C [Example 117, N-((1,2,3,5,6,7-Hexahydro-s-indacen-4-yl)carbamoyl)-5-(((2-hydroxyethyl)(methyl)amino)methyl)-1-methyl-1H-pyrazole-3-sulfonamide]	> 6.40
